Assays:
recipient hCMEC/D3 BECs = test: Uptake of MitoT-red-EVs into recipient hCMEC/D3 cells, flow cytometry; type: cell-based, human; conditions: cells pre-stained with 100 nM MitoT-red for 30 min
Protocol: Uptake of Mitotracker-labeled naïve and mito-EVs into the recipient hCMEC/D3 cells (isolation of mitochondria-labeled naïve and mito-EVs) hCMEC/D3 BECs and NIH/3T3 fibroblasts were cultured in T175 flasks to confluency. The complete growth medium was removed and cells were washed with 1× PBS. Cells were treated with 100 nM MitoTracker deep red (MitoT-red) diluted in serum-free medium for 30 min in a 37° C. humidified incubator, and following that, the cells were washed with 1× PBS. For naïve EVs, cells were incubated with serum-free medium for 48 h, whereas for mito-EVs, cells were incubated with serum-free medium containing 10 μM Resveratrol for 48 h. Post-incubation, the conditioned medium was collected into polystyrene centrifuge tubes. […] The EV protein content in MitoT-red-sEVs and MitoT-red-m/lEVs were determined using MicroBCA assay, and the samples were stored at −80° C. until further use.
Uptake of hCMEC/D3 BEC- and NIH/3T3 fibroblast-derived MitoT-red-EVs into recipient hCMEC/D3 cells using flow cytometry hCMEC/D3 BECs (P31) were seeded in a 48-well plate at a seeding density of 50,000 cells/well in complete growth medium and cultured for 48 hours in a humidified incubator at 37° C. […] For each sample, an aliquot of a 100 μL cell suspension was analyzed on an Attune N×T Flow cytometer and 10,000 events were recorded in FSC vs. SSC plots. […]

PGC-1α [1] = test: PGC-1α protein expression by western blotting in Resveratrol-treated NIH/3T3 fibroblasts; type: cell-based, mouse; conditions: NIH/3T3 cells, 24 h, vs untreated cells
Protocol: (§1) Measurement of PGC-1α expression using western blotting (Activation of hCMEC/D3 brain endothelial cells and NIH/3T3 fibroblasts with Resveratrol and preparation of cell lysate for western blotting) hCMEC/D3 brain endothelial cells (BECs) and NIH/3T3 fibroblasts were seeded in a 24-well plate at 100,000 cells/well-seeding density in complete growth medium and cultured for 48 hours in a humidified incubator at 37° C. The cells were treated with different concentrations of Resveratrol ranging from 0.1 to 50 μM in complete growth medium for 24 h. Untreated cells were incubated with a complete growth medium and used as the control for the treatment groups. Post-treatment, the cells were washed with 1× PBS, and the cell suspension was collected in centrifuge tubes. The cell suspension was centrifuged at 300×g for 10 min at 4° C., washed with 1× PBS, and the cell pellet was lysed with 1× RIPA buffer containing 3 μg/mL aprotinin. The total protein concentration in the cell lysates was measured using a BCA assay.
(§2) Detection of PGC1α protein expression in hCMEC/D3 BECs and NIH/3T3 fibroblasts using western blotting A 40 μg cell lysate of untreated and Resveratrol treated hCMEC/D3 BECs and NIH/3T3 fibroblasts were mixed with 4× laemmli buffer and distilled water. The mixture was heated at 95° C. for 5 min using a heating block (Thermo Scientific). Denatured samples and standard molecular weight markers (ladder, 250-25 kD) were separated on a 4-10% gradient sodium dodecyl sulfate polyacrylamide gel at 120 V for 90 min using a PowerPac Basic setup (Bio-Rad Laboratories, Inc.). The gel was washed with deionized water for 30 min, and the proteins were transferred from the gel to a 0.45 μm nitrocellulose membrane using a transfer assembly (Bio-Rad Laboratories, Inc.) at 75 V and 300 mA for 90 min. Following that, the membrane was washed with tris-buffered saline pH 7.4 containing 1% tween 20 (T-TBS) for 45 min and blocked with Intercept blocking buffer (Li-COR Inc., Lincoln, NE) for an hour at room temperature. […]

PGC-1α [2] = test: PGC-1α protein expression by western blotting in Resveratrol-treated hCMEC/D3 BECs; type: cell-based, human; conditions: hCMEC/D3 cells
Protocol: as §1, §2

| SMILES | MitoT+ve cells, positive control (recipient hCMEC/D3 BECs) | normalized PGC-1α expression (PGC-1α [1]; 10 μM Resveratrol) | PGC-1α expression (PGC-1α [1]; 50 μM Resveratrol) | normalized PGC-1α expression (densitometry) (PGC-1α [1]; Resveratrol 0.1 to 50 μM) | PGC-1α and GAPDH protein expression (PGC-1α [2]; Resveratrol 10 μM to 50 μM, 24 h) | PGC-1α protein band densities (PGC-1α [2]; Resveratrol 0.1 and 1 μM, 24 h, vs untreated cells) | increase in normalized PGC-1α protein expression (PGC-1α [2]; Resveratrol up to 1 μM, vs untreated cells) [%] |
| --- | --- | --- | --- | --- | --- | --- | --- |
| C[N+]1=C(/C=C/C=C/C=C2\N(Cc3ccc(CCl)cc3)c3ccccc3C2(C)C)C(C)(C)c2ccccc21.[Cl-] [MitoT-red] | about 77% |  |  |  |  |  |  |
| Oc1ccc(C=Cc2cc(O)cc(O)c2)cc1 [Resveratrol] |  | statistically significant (p<0.01) increase | considerable (p=0.07) decrease | concentration-dependent increase in PGC-1α expression | gradual and considerable decrease | slight increase | 5 |
